Where “and” joins values, the source holds several entries; their conditions need not be identical. Equal values may be shown once. Where a name gives a salt, the structure may show the parent alone.
Key:
[1] = tested on: behavioural despair (acquired immobility); assay: Forced Swimming Test (Porsolt Swimming Test) on rats; assay type: in vivo, rat (Sprague Dawley); conditions: for Acquired Immobility (group mean value in minutes ± standard dev.): three administrations, 5 min test; for Acquired Immobility (group mean value in minutes ± standard dev.) / Change relative to control group (acquired immobility): rat, SD strain
Method: To verify whether this MAO-A-inhibitory action in vivo is relevant, deoxypeganine was tested in the “Forced Swimming Test” on rats (R. D. Porsolt et al., Nature 1977; 266(5604): 730-732). […] The time spent with attempts at escape until the animals fall into this psychomotorical inactivation (considered to be a surrogate for depression) is measured; prolonged activity corresponds to antidepressive action.
In the concrete case, […], about 6 weeks old (strain Sprague Dawley); acquired from Charles River UK Ltd.) were divided into 7 groups with 10 animals each. On the first day, after termination of the habituation phase, each animal was placed for 10 minutes in a cylindrical vessel filled about 15 cm high with 25°-warm water; this was followed, after one hour, 19 hours, and 23 hours, by three oral administrations of (depending on the group) either negative control (water), 15 mg/kg positive control (imipramine.HCl), or deoxypeganine.HCl in dosages of 1.0, 2.5, 7.5, 15.0 or 22.5 mg/kg of bodyweight. The volume, administered with the aid of a gastric tube, was in each case 5 ml/kg of bodyweight. One hour after the third of these treatments, each animal was again placed in the vessel for exactly 5 minutes and the time spent in minimal mobility was measured.

[2] = target: T1, monoamino oxidase A from rat brain (Rattus norvegicus, UniProt P21396); assay: Inhibition of monoamino oxidase A from rat brain, [3H]serotonine substrate (Medvedev et al.); assay type: biochemical, rat (Wistar strain); conditions: rat brain MAO-A; 95 μM [3H]serotonine; 1% DMSO in 20 mM potassium dihydrogenphosphate buffer pH 7.4; 10 nM to 10 μM; read-out: semi-maximal inhibitory action (IC50), monoamino oxidase A
T1 sequence (P21396 1-526): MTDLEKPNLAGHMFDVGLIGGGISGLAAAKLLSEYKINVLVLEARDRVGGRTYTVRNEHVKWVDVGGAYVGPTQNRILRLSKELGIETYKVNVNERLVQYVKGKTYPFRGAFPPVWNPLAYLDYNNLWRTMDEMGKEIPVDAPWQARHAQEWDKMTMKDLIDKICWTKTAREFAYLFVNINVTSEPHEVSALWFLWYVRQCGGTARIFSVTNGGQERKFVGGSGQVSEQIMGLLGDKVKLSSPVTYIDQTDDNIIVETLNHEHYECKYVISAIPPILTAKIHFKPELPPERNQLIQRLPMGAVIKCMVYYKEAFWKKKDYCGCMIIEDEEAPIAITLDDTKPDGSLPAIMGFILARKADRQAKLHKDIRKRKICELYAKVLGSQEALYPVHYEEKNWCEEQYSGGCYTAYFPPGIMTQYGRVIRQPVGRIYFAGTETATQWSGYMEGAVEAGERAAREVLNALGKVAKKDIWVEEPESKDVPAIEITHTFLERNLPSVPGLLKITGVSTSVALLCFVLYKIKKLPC
Method: The inhibitory action of deoxypeganine in respect of monoamino oxidase A from rat brain (Wistar strain) was measured in the concentration range of from 10 nM to 10 μM according to the method described by Medvedev et al. (Biochem Pharmacol 1994; 47(2): 303-308) and compared with clorogyline as the positive control, whereby in both cases 95 μM [^3H]serotonine in a solution of 1% dimethylsulfoxide in 20 mM of potassium dihydrogenphosphate buffer pH 7.4 served as substrate.

psychomotoric activation = assay: Open Field Paradigma; assay type: in vivo, Sprague-Dawley rats; conditions: treatment for 2 weeks, daily doses of 2.5 to 22.5 mg/kg
Source text: Since such results can in principle also be obtained by psychomotorically activating substances which have no anti-depressive action, the effect of deoxypeganine was also examined, with the same dose range, in the so-called Open Field Paradigma. Here one makes use of the fact that it is stressful for rats to stay in an open, bright area, and therefore such situations are avoided by the rats if possible.

[3] = tested on: cholinergic memory deficits; assay: Compensation of cholinergic memory deficits in rats with partially destroyed central cholinergic pathways; assay type: in vivo
Source text: It can be inferred therefrom that the effect observable in the swimming test reaches its maximum at a fraction of the dose necessary for maximal activation of the cholinergic system, which according to the state of the art could not be reckoned with.

Monoamino oxidase B = target: T2, Monoamino oxidase B (Rattus norvegicus, UniProt P19643); assay: Inhibition of monoamino oxidase B
T2 sequence (P19643 1-520): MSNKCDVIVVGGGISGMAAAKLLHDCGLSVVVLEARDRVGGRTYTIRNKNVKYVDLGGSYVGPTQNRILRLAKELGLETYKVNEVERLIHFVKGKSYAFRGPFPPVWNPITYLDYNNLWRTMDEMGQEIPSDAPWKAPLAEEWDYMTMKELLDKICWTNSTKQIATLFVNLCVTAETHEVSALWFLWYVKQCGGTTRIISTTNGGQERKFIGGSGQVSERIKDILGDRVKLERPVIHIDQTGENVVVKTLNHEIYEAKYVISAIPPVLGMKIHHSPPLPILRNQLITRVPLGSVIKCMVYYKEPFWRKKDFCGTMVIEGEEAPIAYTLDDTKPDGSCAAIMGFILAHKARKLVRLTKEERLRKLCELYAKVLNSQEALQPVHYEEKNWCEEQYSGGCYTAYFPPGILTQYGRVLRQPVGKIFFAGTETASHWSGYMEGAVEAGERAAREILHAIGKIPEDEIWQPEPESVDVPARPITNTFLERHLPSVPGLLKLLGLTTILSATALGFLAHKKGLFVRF

Structure (SMILES): Cl.c1ccc2c(c1)CN1CCCC1=N2 [deoxypeganine hydrochloride]
- Acquired Immobility (group mean value in minutes ± standard dev.) ([1]; 1.0 mg/kg p.o.): 3.46 ± 0.83 min
- Change relative to control group (acquired immobility) ([1]; 1.0 mg/kg p.o.): +0.3%
- Acquired Immobility (group mean value in minutes ± standard dev.) ([1]; 2.5 mg/kg p.o.): 2.80 ± 1.02 min
- Change relative to control group (acquired immobility) ([1]; 2.5 mg/kg p.o.): −18.8%
- Change relative to control group (acquired immobility) ([1]; 7.5 mg/kg p.o., hydrochloride): −47.2% and −41.4%
- Change relative to control group (acquired immobility) ([1]; 15 mg/kg p.o.): −44.1%
- Change relative to control group (acquired immobility) ([1]; 22.5 mg/kg p.o.): −43.8%

Structure (SMILES): c1ccc2c(c1)CN1CCCC1=N2 [deoxypeganine, 1,2,3,9-tetrahydropyrrolo[2,1-b]quinazoline]
- IC50 [2]: 1490 nM
- effectiveness in forced swimming test, in words ([1]; 2.5 mg/kg): only partially effective
- effectiveness in forced swimming test, in words ([1]; dose of 1 mg/kg): not yet effective
- dose of maximal action in the Porsolt test ([1]; p.o., comparable to the antidepressant imipramine): 7.5 mg/kg
- psychomotoric activation in open field, in words (psychomotoric activation): no indication of psychomotoric activation
- compensation of cholinergic memory deficits, in words ([3]; 22.5 mg/kg oral): had not yet reached its maximum value
- compensation of cholinergic memory deficits, in words ([3]; oral dose of 7.5 mg/kg): not yet statistically significant
- inhibition of Type B enzyme (MAO-B), in words (Monoamino oxidase B; in vitro): not significantly inhibited
- inhibition at 10 µM (Monoamino oxidase B; read-out: inhibition of monoamino oxidase B): 15 to 20%

Structure (SMILES): CN(C)CCCN1c2ccccc2CCc2ccccc21 [imipramine HCl, reference compound]
- Change relative to control group (acquired immobility) ([1]; 15 mg/kg p.o., HCl): −56.5% and −58.9%
